From US8232318B2, “Approaches to treat cancer using HB-EGF inhibitors” (The General Hospital Corporation, priority 2009, dated 2012)
“Also recorded” adds a separate entry of the source.

Columns and labels:
EJ cells = experiment: Clonogenic assay of EJ cells; format: cell-based, human; settings: for colony growth: EJ cells, 5 μM, grown for two weeks
Experimental: Aliquots of one hundred EJ cells were plated out in petridish (60 mm size) and allowed to establish themselves. […] After exposure, the cells were grown for two weeks without changing the medium, and the number of cell colonies were counted.

HB-EGF = biological target: T1, HB-EGF (Homo sapiens, UniProt Q99075); experiment: Surface Plasmon Resonance (Biacore) binding to immobilized HB-EGF; settings: SPR, compound 0.78 uM-50 uM, 25° C.
T1 construct: lyophilized HB-EGF protein (R&D Systems) was dissolved in either water or PBS buffer; purchased R&D Systems
T1 sequence (Q99075 63-148 limits assumed): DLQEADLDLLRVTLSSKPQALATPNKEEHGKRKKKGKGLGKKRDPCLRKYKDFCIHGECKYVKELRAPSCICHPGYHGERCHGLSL
Experimental: A Biacore™ T100 (GE Healthcare, Uppsala, Sweden) was used to perform the Surface Plasmon Resonance (SPR) experiments. Sensor surface preparation and interaction analyses experiments were performed at 25° C. Prior to surface preparation, lyophilized HB-EGF protein (R&D Systems) was dissolved in either water or PBS buffer, at pH 7.4 and protein purity determined by Nu-Page 4-12% Bis-Tris gel in MOPS (3-(N-Morpholino)-propanesulfonic acid) buffer with a silver stain sensor preparation. HB-EGF was immobilized onto series S sensor chip CM4 via a standard N-ethyl-N′-(dimethyl-aminopropyl)carbodiimide/N-hydroxysuccinimide (EDC/NHS) amine coupling procedures. HB-EGF was diluted to 10 μg/mL in 10 mM sodium acetate pH5.5 for these procedures and resultant immobilization levels were 1000-1200 R.U.s. (R.U.: […]). Control surfaces were prepared similarly without protein derivatization and utilized as a reference surfaces for compound binding experiments. For compound interaction analyses, 0.01 M Hepes, pH7.4, 0.15 M NaCl, 0.05% Surfactant P20 and 5% DMSO was used. Compound samples were prepared by serial dilution in the range 0.78 uM-50 uM and flowed over control and derivatized surfaces for two minutes at a flow-rate of 80 μL/min. Zero concentration blank buffer cycles were included as negative control samples. […]

[1] = tested on: human cancer cells including breast cancer cells, bladder cancer cells, colon cancer cells, and lung cancer cells; experiment: Induction of cell death/apoptosis in a panel of human cancer cells; format: cell-based
Source text: We evaluated the ability of myrsinoic acid A (NP2008) to suppress cell growth and induce apoptosis in a panel of human cancer cells.

[2] = tested on: human cancer cells including breast cancer cells, bladder cancer cells, colon cancer cells, and lung cancer cells; experiment: Tumor cell growth inhibition / viable cells by crystal-violet staining; format: cell-based
Source text: The ability to suppress the growth of cancer cells was again seen at micromolar potencies (2.5-10 microM) and was concentration dependent. […] Viable cells are shown with crystal-violet cell staining.

EJ cancer cells = experiment: Cytotoxicity assay (sulforhodamine B) in EJ cancer cells; format: cell-based, human; settings: high and low confluent density, FIG. 10 legend
Experimental: DMSO treatment was used as a control. Cells were stained with 0.4% sulforhodamine B three days after treatment. The results are shown in FIG. 10 A (cells started with higher confluent density) and FIG. 10 B (treatment experiments performed with lower confluent density). FIG. 10 C (low confluent) and FIG. 10 D show the result of a time curve experiment wherein aliquots of cells were stained at 24, 48, 72 and 96 hours.

[3] = tested on: phospho-EGFR, phospho-Her3/ErbB3 and phospho-AKT; experiment: EGFR signaling in Iressa resistant SKBR3 cells by Western blot; format: cell-based, human; settings: longer exposure (up to 96 hours)
Experimental: After treatment, total cell lysates were isolated and analyzed by Western blot analysis. The cells were evaluated for the presence of phospho-EGFR, phospho-Her3/ErbB3 and phospho-AKT.

[4] = tested on: human normal (non-cancerous) breast epithelial cells; experiment: Toxicity in human primary normal (non-cancerous) cells; format: cell-based; settings: 5 and 10 microM (Iressa 5 microM), 24-96 hours, Alamar Blue and cell death assays
Experimental: The cultures were subsequently stained with crystal-violet blue to evaluate the number of live cells. […] The number of dead cells was determined by Alamar Blue staining as well as Cyto-Flow-cell death assays from Promega (Madison, Wis.).

EJ cells or A549 cells = experiment: Lung or bladder tumor xenograft in nude mice; format: in vivo; settings: intraperitoneally 1 mg/kg every 48 hours for 42 days, vs control DMSO-administered mice
Experimental: Lung or bladder tumor xenograft-bearing mice were treated with myrsinoic acid A to evaluate its in vivo anti-tumor effect. A total of 2×10^6 EJ cells or A549 cells were implanted subcutaneously on opposite site flanks in each nude/nude mice (Charles River, Mass.). There were six mice in each group. When tumor masses grew to ˜2-5 mm in diameter, myrsinoic acid A (NP2008) was administered intraperitoneally (total 1 mg/kg) every 48 hours for 42 days.

mammary tumor = experiment: Spontaneous tumor model (MMTV-PyVT transgenic mice); format: in vivo; settings: 5 mg/kg daily i.p. for 28 days, vs DMSO
Source text: Mice with a spontaneous tumor model (MMTV-PvVT (FVB/N-Tg) transgenic mice; NCI repository) develop multifocal mammary tumor (from hyperplasia to metastatic) with a high incidence of metastasis. This mouse model has been widely used for the correlation studies of human cancer (Guy et al., Moll. Cell. Biol. 12: 954-961, 1992). In addition, this mouse model has been used to evaluate the effectiveness of potential drug therapies. Generally, due to aggressiveness of tumor growth and spread in this mouse-model, only a combination of chemo-drugs is effective in tumor growth inhibition in this mouse model.
MMTV-PyVT mice were maintained until mammary tumor size reached to 6 mm, and then treated with myrsinoic acid A (NP2008) (5 mg/kg) or vehicle (DMSO) daily by i.p. for 28 days.

[5] = mouse ear inflammatory test; cited from earlier work
DNA polymerases = settings: cited from earlier work
methioninase = settings: cited from earlier work
[6] = concentration dependent, wildtype or mutated p53 cell lines

COc1cc2ncnc(Nc3ccc(F)c(Cl)c3)c2cc1OCCCN1CCOCC1 [Iressa, reference compound]
colony growth (EJ cells): did not show any colony growth

CC(C)=CCC/C(C)=C/Cc1cc(C(=O)O)cc(CC=C(C)C)c1O [myrsinoic acid A, 3-geranyl-4-hydroxy-5-(3′-methyl-2′butenyl)-benzoic acid]
binding to HB-EGF (HB-EGF): binding | cell death ([1]; EJ human bladder cancer cells and HCT116 human colon cancer cells (FIG. 5)): induces cell death | potencies at which apoptosis is induced [1, 6]: 2.5 to 10 µM | number of viable cells ([2]; EJ, HCT116, MDA-MD486 and A549 cells, crystal-violet staining (FIG. 6)): decrease in the number viable cells | potencies at which growth of cancer cells is suppressed [2, 6]: 2.5 to 10 µM | colony growth (EJ cells): did not show any colony growth | suppression of growth of EJ cells compared with radiation or Iressa (EJ cells; clonogenic assay, FIG. 9 legend): more effective | suppression of cancer cell proliferation compared with Iressa (EJ cancer cells): more potent suppressor of cancer cell proliferation than Iressa | phospho-EGFR, phospho-HER3 and phospho-AKT on longer exposure [3]: long term suppression | cytotoxicity in normal cells [4]: less cytotoxicity in normal cells than Iressa; also recorded: non-toxic | tumor growth (EJ cells or A549 cells): significant tumor-growth suppression | tumor mass (mammary tumor): significant reduction in tumor mass | anti-inflammatory activity [5]: act as anti-inflammatory compounds | DNA polymerase inhibition (DNA polymerases): inhibitor of some DNA polymerases

CC(C)=CCCC(C)(O)C1Cc2cc(C(=O)O)cc(CC=C(C)C)c2O1 (centres unmarked) [myrsinoic acid B]
anti-inflammatory activity [5]: act as anti-inflammatory compounds | methioninase inhibition (methioninase): methioninase inhibitor

CC(C)=CCC[C@]1(C)Oc2c(CC=C(C)C)cc(C(=O)O)cc2C[C@@H]1O [myrsinoic acid C]
anti-inflammatory activity [5]: act as anti-inflammatory compounds

CC(C)=CCC/C(C)=C/Cc1cc(C(=O)O)cc(C/C=C(\C)CCC=C(C)C)c1O [myrsinoic acid E]
anti-inflammatory activity [5]: act as anti-inflammatory compounds

CC(C)=CC/C=C(\C)C1Cc2cc(C(=O)O)cc(CC=C(C)C)c2O1 (centres unmarked) [myrsinoic acid F]
anti-inflammatory activity [5]: act as anti-inflammatory compounds; also recorded: most potent anti-inflammatory compound
